Measured values taken from US20060052345A1, “Quinazolinone compounds as calcilytics” (NPS Pharmaceuticals, Inc., priority 2002, published 2006).

Legend:
[1] = tested on: parathyroid hormone (PTH); experiment: Plasma PTH levels after intravenous injection in normal rats (rat PTH (1-84) ELISA); assay type: in vivo; settings: 3 or 10 μmol/kg intravenous injection, normal conscious male Sprague-Dawley rats, FIG. 2
Description: (§1) 2-(2-Hydroxy-phenyl)-3-phenethyl-3H-quinazolin-4-one (compound 17) (3 or 10 μmol/kg) or vehicle was administered by intravenous injection over about 15 seconds to normal conscious male Sprague-Dawley rats with chronic indwelling arterial and venous catheters. Arterial blood samples were collected immediately before, and at 1, 5, 10, and 30 min after the start of the injection for measurement of the levels of parathyroid hormone (PTH), ionized calcium (Ca^2+) and compound 17 in plasma. PTH was measured using a specific rat PTH (1-84) ELISA (Immutopics, San Clemente, Calif.) and compound 17 was quantified by an LC-MS/MS method. Positive ions were generated by turbo ionspray and were subsequently fragmented by collision-induced dissociation, so that compound 17 could be detected by selected-reaction monitoring.

[2] = Plasma levels of compound 17 after intravenous injection in normal rats (LC-MS/MS); assay type: in vivo, rat; settings: 3 or 10 μmol/kg intravenous injection, normal conscious male Sprague-Dawley rats, FIG. 1
Description: as §1

ionized calcium (Ca^2+) = experiment: Plasma ionized calcium levels after intravenous injection in normal rats; assay type: in vivo, rat; settings: 3 or 10 μmol/kg intravenous injection, normal conscious male Sprague-Dawley rats, up to 30 min (not shown)
Description: as §1

time after injection at which plasma levels of compound were maximal [2]: 1 min
Structure (SMILES): O=c1c2ccccc2nc(-c2ccccc2O)n1CCc1ccccc1 [compound 17, 2-(2-Hydroxy-phenyl)-3-phenethyl-3H-quinazolin-4-one]
effect on plasma PTH levels [1]: rapid, but transient dose-related increase | time after injection at which plasma PTH levels were maximal [1]: 1 min | time after injection by which plasma PTH levels had returned to pre-dose levels [1]: ≤ 10 min | course of plasma levels of compound after the maximum [2]: declined rapidly during the next 10-30 min | changes in plasma Ca^2+ levels (ionized calcium (Ca^2+)): no consistent changes
